This note sets out measurements from publication doi:10.1101/2024.10.14.618151v1 (bioRxiv, 2024).

This assay has as its system PBL migration across TNF-α/IFN-γ-stimulated endothelial cells (HDBEC). Conditions: for IC50: 24 h.

Non-standard residues stand in square brackets, D forms with d. Residues, ends and D or L forms follow the SMILES beside them. No end group written: not given here. pGlu = O=C1CC[C@@H](C(=O)O)N1

Consider SVTEQGAELSNEER [PEPITEM], for which the midpoint of inhibition, the IC50, lay at 0.045 nM.

As to `CC(C)[C@@H](NC(=O)[C@H](N)[C@H](C)O)C(=O)N[C@H](CO)C(N)=O` [tvs-NH2] (H-[dT]-[dV]-[dS]-NH2), inhibition was half-maximal at 0.024 nM (IC50).

For `C[C@H](NC(=O)CNC(=O)[C@@H]1CCC(=O)N1)C(N)=O` [[PyroGlu]-GA-NH2] ([pGlu]-Gly-Ala-NH2), the IC50 (as a rule, the point on the concentration scale where inhibition reaches its midpoint) amounted to 0.0032 nM.

On to SVTEQGA, for which the “effect on lymphocyte migration in vitro” value is “full activity”.
